# Measurements as given in US11702417B2, “Compounds for improving mRNA splicing” (The General Hospital Corporation, priority 2015, dated 2023).
# Like-named read-outs stand apart in the source and are kept apart here.
# System: FD (familial dysautomonia) IKBKAP minigene, exon 20 inclusion, in HEK293T cells
# Assay: Primary splicing assay (FD IKBKAP minigene, Firefly/Renilla luciferase reporter in HEK293T)
# Assay type: cell-based, human
# Conditions: for Emax / EC (maximum kinetin efficacy): Homo sapiens, HEK-293T; for EC (maximum kinetin efficacy): HEK293T, read-out: ECk (compound concentration at which the maximum kinetin efficacy (200 μM) is reached)
# Description: As used herein, the expression “ECk” refers to the compound concentration at which the maximum kinetin efficacy (200 μM) is reached.
# Splicing analysis was made possible by using an FD (familial dysautomonia) IKBKAP minigene which contained exon 19 through exon 21, including intervening introns, and also the T→C Thymine to cytosine transition located 6 base-pairs from the end of IKBKAP exon 20; See SEQ ID NO:3 for the complete sequence of plasmid pcDNA3.1/V5HisTOPO with Renilla-Familial Dysautonomia minigene-Firefly. Firefly luciferase (SEQ ID NO:14) was utilized as a splicing reporter, located downstream of exon 21, and Renilla luciferase (SEQ ID NO:13) was used as a control, located upstream of exon 19. The sequence of exon 19 is presented as SEQ ID NO:7; the Intron between Exon 19 and Exon 20 is SEQ ID NO:8; exon 20 is SEQ ID NO:9; the intron between […]; exon 21 is SEQ ID NO: 11, and the spliced sequence of exons 19-20-21 is SEQ ID NO:12. HEK293T cells were plated in a 6-well plate 24 hours prior to transfection. Transfection was carried out using a mixture of Opti-MEM (GIBCO ref. 31985), IKBKAP minigene, and Fugene HID (PROMEGA ref. E2311), incubated in DMEM media containing HEK293T cells at 37° C. The ratio of Opti-MEM, minigene, and Fugene was kept at approximately 9:1.5:1, with a total volume of 150 μL of transfection mixture applied per well.
# After 4 hours of transfection, the cells were then plated in a 96-well plate coated with poly-L-lysine (SIGMA cat.P4707) for treatment scheduled 24 hours later. […] After 24 hours of treatment, cells were washed in the poly-L-lysine coated 96-well plate using PBS and subsequently harvested using Passive Lysis Buffer (Promega cat.E196). Cell lysate was transferred to a black and white 96-well plate and analyzed for splicing correction using a Glomax luminometer (PROMEGA GloMax® 96 Microplate Luminometer w/Dual Injectors cat.E6521) and Promega Dual Glo Firefly and Stop and Glo Renilla reagents (Cat.E196). The compound's ability to correct splicing and promote exon 20 inclusion was marked by an increase in Firefly signal. Renilla signal, which is independent of exon 20 inclusion, was used to correct for cell number. Using the ratio of Firefly to Renilla signal, a dose response curve was produced, which referenced kinetin and DMSO Firefly/Renilla ratios as positive and negative controls, respectively.
# [1] = max efficacy in Primary Assay, Firefly/Renilla ratio, kinetin and DMSO as positive and negative controls, 24 hours of treatment, read-out: Emax (%)
# [2] = Firefly/Renilla ratio, 24 hours of treatment
# [3] = max efficacy, value marked (RT-PCR), footnote a: Firefly inhibitor, read-out: Emax (%) (RT-PCR)
SMILES,Emax [1] [%],EC (maximum kinetin efficacy) [2] [µM],also measured
Clc1nc(NCc2csnn2)c2cc[nH]c2n1 [(498)],37.7,–,–
Clc1nc(NCc2ncccn2)c2cc[nH]c2n1 [(361)],9.8,–,–
CC(F)(F)COc1nc2c(NCc3ccco3)nc(Cl)nc2[nH]1 [(390)],201,0.74,–
Clc1nc(NCc2nccs2)c2nc(OCCOc3ccccc3)[nH]c2n1 [(401)],41.2,–,–
OCCn1ccc2c(NCc3ccco3)ncnc21 [(74)],64,–,–
N#Cc1c[nH]c2nc(Cl)nc(NCc3nccs3)c12 [(148)],62,–,–
Clc1nc(NCc2cc3ccccc3o2)c2nc[nH]c2n1 [(164)],68,–,–
FC(F)(F)CCOc1nc2c(NCc3ccco3)nc(Cl)nc2[nH]1 [(398)],176,0.94,–
Clc1nc(NCc2nccs2)c2nc(OC3CCC3)[nH]c2n1 [(289)],128,0.87,–
COc1nc2c(NCc3ccncn3)nc(Cl)nc2n1CCO [(300)],84,10,–
COc1nc2c(NCc3ccncc3)nc(Cl)nc2[nH]1 [(184)],169,3.62,–
Clc1nc(NCc2ccnnc2)c2cc[nH]c2n1 [(176)],48,–,–
O=c1cc(CNc2nc(Cl)nc3[nH]cnc23)cc[nH]1 [(255)],42,–,–
CCOc1nc2c(NCc3ccco3)nc(Cl)nc2[nH]1 [(233)],152,1.59,–
Clc1nc(NCc2cscn2)c2nc[nH]c2n1 [(381)],63.4,–,–
Cn1c(=O)[nH]c2nc(Cl)nc(NCc3nccs3)c21 [(470)],76.8,–,–
Cn1cnc2nc(Cl)nc(NCc3ccncn3)c21 [(316)],108,7.09,–
FC(F)(F)CN1CCC(n2ccc3c(NCc4ccco4)nc(Cl)nc32)CC1 [(200)],11,–,–
Cc1noc(-c2cc3c(NCc4ccco4)nc(Cl)nc3[nH]2)n1 [(246)],22,–,–
Fc1ccc(Nc2ncnc3[nH]cnc23)cc1 [(34)],–,26.6,–
Clc1nc(NCc2nccs2)c2cn[nH]c2n1 [(222)],146,8.99,–
Clc1nc(NCc2ccco2)c2cn[nH]c2n1 [(85)],96,–,–
OCCOc1nc2c(NCc3ccncc3)nc(Cl)nc2[nH]1 [(315)],165,2.52,–
CN(C)C(=O)c1cc2c(NCc3ccco3)nc(Cl)nc2[nH]1 [(195)],81,–,–

SMILES,Emax [1] [%],EC (maximum kinetin efficacy) [2] [µM],also measured
c1nc2nc[nH]c(NC3CCCCCC3)c-2n1 [(512)],43.7,–,–
N#Cc1cc2c(NCc3ccco3)nc(Cl)nc2[nH]1 [(223)],95,–,–
Clc1nc(NCc2nccs2)c2nc(OCc3ccncc3)[nH]c2n1 [(507)],167,0.77,–
FC(F)(F)c1ccccc1Nc1ncnc2[nH]cnc12 [(18)],39,–,–
Clc1nc(NCc2ccncn2)c2nc(C3CCC3)[nH]c2n1 [(236)],83,–,–
OCCn1ccc2c(NCc3nccs3)nc(Cl)nc21 [(137)],214,7.25,–
CN(Cc1nccs1)c1nc(Cl)nc2[nH]ccc12 [(363)],53.2,–,–
FC(F)COc1nc2c(NCc3ccncc3)nc(Cl)nc2[nH]1 [(382)],193,1.31,–
Clc1nc(NCc2ccco2)c2nc(Cc3ccncc3)[nH]c2n1 [(99)],47,–,–
OCCCn1ccc2c(NCc3ccco3)nc(Cl)nc21 [(108)],–,–,Emax [3]: 172%
CCCCOc1nc2c(NCc3ccncc3)nc(Cl)nc2[nH]1 [(305)],284,0.43,–
FCCn1ccc2c(NCc3ccncc3)nc(Cl)nc21 [(194)],241,4.49,–
OCCn1ccc2c(NCc3ccncn3)nc(Cl)nc21 [(127)],264,5.45,–
FC(F)(F)c1cccc(CNc2ncnc3[nH]cnc23)c1 [(10)],21,–,–
CNC(=O)c1cc2c(NCc3ccco3)nc(Cl)nc2[nH]1 [(187)],111,–,–
Cc1nc2c(NCc3ccco3)nc(Cl)nc2[nH]1 [(90)],159,11.8,–
Clc1nc(NCc2cccnc2)c2cc[nH]c2n1 [(355)],26,–,–
Cn1cnc2nc(Cl)nc(NCc3ccncc3)c21 [(313)],102,7.48,–
CN(C)c1nc(NCc2ccco2)c2nc[nH]c2n1 [(60)],13,–,–
CN(Cc1ccco1)c1ncnc2[nH]cnc12 [(403)],39,–,–
CC(C)COc1nc2c(NCc3ccco3)nc(Cl)nc2[nH]1 [(477)],108,2.28,–
Clc1nc(NCc2ccco2)c2nc(OCCOc3ccccc3)[nH]c2n1 [(481)],93.4,4.14,–
COCCOc1nc2c(NCc3nccs3)nc(Cl)nc2[nH]1 [(328)],184,1.79,–
CCCOc1nc2nc(Cl)nc(NCc3nccs3)c2n1C [(335)],35,–,–

SMILES,Emax [1] [%],EC (maximum kinetin efficacy) [2] [µM],also measured
Clc1cc(NCc2nccs2)n2ccnc2n1 [(295)],54,–,–
OCCCNc1nc2c(NCc3ccco3)nc(Cl)nc2[nH]1 [(225)],114,21.1,–
Clc1nc(NCc2ccco2)c2nc(OCC#Cc3ccccc3)[nH]c2n1 [(474)],24.9,–,–
Clc1nc(NCc2nccs2)c2nc(OCC#Cc3ccccc3)[nH]c2n1 [(476)],25.5,–,–
c1nc(NCc2ccoc2)c2nc[nH]c2n1 [(465)],–,–,Emax [3]: 26.3%
Clc1cc(NCc2ccco2)n2ncnc2n1 [(284)],27,–,–
COc1nc2c(N(C)Cc3nccs3)nc(Cl)nc2[nH]1 [(351)],22,–,–
FC(F)(F)COc1nc2c(NCc3ccncn3)nc(Cl)nc2[nH]1 [(331)],209,0.69,–
CC(C)c1nc(NCc2ccco2)c2nc[nH]c2n1 [(67)],13,–,–
NC(=O)c1nc2c(NCc3ccncc3)nc(Cl)nc2[nH]1 [(242)],31,–,–
Cc1cnccc1CNc1nc(Cl)nc2[nH]ccc12 [(263)],105,27.4,–
Clc1nc(NCc2nncs2)c2cc[nH]c2n1 [(501)],18.1,–,–
CC(=O)N1Cc2nc(Cl)nc(NCc3nccs3)c2C1 [(510)],20,–,–
Clc1nc(NCc2ccco2)c2c(Cl)c[nH]c2n1 [(205)],27,6.41,–
Cc1[nH]c2nc(Cl)nc(NCc3ccco3)c2c1Br [(143)],24,–,–
CC(C)COc1nc2c(NCc3nccs3)nc(Cl)nc2[nH]1 [(491)],155,0.48,–
COc1nc2c(NCc3ccncc3)nc(Cl)nc2n1CCO [(287)],106,7.56,–
CN(Cc1ccncc1)c1nc(Cl)nc2[nH]ccc12 [(369)],57.8,–,–
NC(=O)c1cc2c(NCc3ccco3)nc(Cl)nc2[nH]1 [(188)],145,11.7,–
Cc1cccc(CNc2ncnc3[nH]cnc23)c1 [(1)],19,–,–
Cc1nc2ncnc(NCc3ccco3)c2[nH]1 [(87)],46,–,–
Fc1c[nH]c2nc(Cl)nc(NCc3ccncc3)c12 [(114)],–,–,"Emax (max efficacy, Firefly only, footnote c: Renilla interference/Firefly only, read-out: Emax (%) Firefly only): 174%; ECk, Firefly only (Renilla interference/Firefly only (footnote c)): 6.59 µM⁻¹"
COc1cccc(Nc2ncnc3[nH]cnc23)c1 [(49)],–,42.5,–
OC[C@H]1O[C@@H](n2cnc3c(NCc4ccco4)ncnc32)[C@H](O)[C@@H]1O [(463)],90,–,–
